# Laboratory results reported in paper PMC4603303, “Activity of Novel Synthetic Peptides against Candida albicans” (Scientific Reports, 2015).
# Where two headings read alike, the source gives them in different places. Ends that are not written are not given here.
# Key:
# human erythrocytes = assay: Haemolytic assay; assay type: cell-based
# Experimental: Freshly collected human blood with heparin was centrifuged to remove the buffy coat. The erythrocytes were washed three times with PBS, centrifuged for 10 min at 2000 rpm at 10°C, and resuspended in PBS to 4% (vol/vol). […] PBS and 0.1% Triton X-100 were used as agents to induce 0 and 100% haemolysis, respectively. Plates were incubated for 1 hour at 37°C and centrifuged at 2000 rpm for 10 min. The supernatant (100 μL) was transferred to a 96-well flat-bottomed polystyrene plate, and the release of haemoglobin was monitored by measuring the absorbance at 560 nm using a microplate reader. Results were repeated three times and each time in duplicate. The percentage of haemolysis was calculated using the following formula: [drawing 2] where Ap and A100 represent the absorbance of erythrocytes treated with peptide and 0.1% Triton X-100. A0 is the absorbance of erythrocytes without treatment.
# C. albicans SC5314 = assay: Time killing assay; assay type: cell-based, Candida albicans; settings: 2
# Experimental: A fungal suspension was adjusted to a 0.5 McFarland turbidity standard with cell density of 1 × 10^6 to 5 × 10^6 cells/ml. 100 μL of adjusted yeast suspension was exposed to 900 μL of RPMI medium containing peptide, yielding a starting inoculum of approximately 10^5 cells/ml. The solutions were incubated at 37°C with agitation. At the predetermined time interval of 0, 1, 2, 4 and 6 hours, 10 μL or 30 μL of the samples were removed, serially diluted with phosphate-buffered saline (PBS) and plated on SDA plates to allow colony counts after 24 hours of incubation. Controls for yeast growth and antifungal agents were also performed. The lower limit of accurate and reproducible quantitation was 100 CFU/ml. Results were obtained from three independent experiments.
# Candida krusei ATCC 6258 = assay: MIC, broth microdilution (CLSI M27-A2); assay type: cell-based; settings: ATCC 6258, 48 h
# Experimental: (§1) C. albicans strains SC5314 and ATCC 90028, C. krusei ATCC 6258 and C. parapsilosis ATCC 22019 were used in the study. The strains were stored at −80°C in nutrient broth supplemented with 2.0% glycerol stock. Prior to experimentation, each strain was streaked for single colonies on Sabouraud Dextrose (SDA) agar plates and incubated overnight at 37°C.
# (§2) Antifungal activity of the designed peptides was determined according to a standardized broth microdilution method (Clinical and Laboratory Standards Institute (CLSI) document M27-A2). Briefly, the yeast colonies from 24- hour-old cultures of Candida species were picked and resuspended in 5 mL of sterile 0.145 mol/L saline and adjusted to cell density of 1 × 10^6 to 5 × 10^6 cells/ml. The yeast stock suspension was then diluted to obtain a starting inoculum of 5.0 × 10^2 to 2.5 × 10^3 cells/ml. […] The drugs were dissolved in DMSO and prepared to a stock concentration of 25 mg/L and 50 mg/L, respectively. […] 100 μL of standardized yeast suspension was then added to each well. Plates were incubated for 48 hours at 37°C. The minimum inhibitory concentration (MIC) was defined as the lowest concentration that inhibited 90% growth of Candida species. The MICs were determined three times and each time in duplicate.
# Candida albicans SC 5314 = assay: MIC, broth microdilution (CLSI M27-A2); assay type: cell-based; settings: SC 5314, 48 h
# Experimental: as §1, §2
# [1] = tested on: Candida parapsilosis ATCC 22019; assay: MIC, broth microdilution (CLSI M27-A2); assay type: cell-based; settings: ATCC 22019, 48 h
# Experimental: as §1, §2
# [2] = tested on: Candida albicans ATCC 90028; assay: MIC, broth microdilution (CLSI M27-A2); assay type: cell-based; settings: ATCC 90028, 48 h
# Experimental: as §1, §2
# Het-1A cell line = assay: cells
# Experimental: (§3) The human normal vaginal epithelial cell line VK2/E6E7 (ATCC® CRL-2616™) and human normal esophagus epithelial cell line Het-1A (ATCC® CRL-2692™) were used for cytotoxicity testing. VK2/E6E7 cell line was grown in Keratinocyte-Serum Free medium (GIBCO-BRL 17005-042) supplemented with 0.1 ng/ml human recombinant EGF, 0.05 mg/ml bovine pituitary extract, and 44.1 mg/L calcium chloride. […] Cell viability was measured by using CellTiter 96® Aqueous Non-Radioactive Cell Proliferation Assay (Promega, USA) and the colourimetric changes were determined at 490 nm using a microplate reader. […] Results were recorded by averaging three repeated experiments and each experiment was performed in duplicate.
# VK2/E6E7 cell line = assay: cells
# Experimental: as §3
# Candida strains = assay: MIC, broth microdilution, range stated over several Candida strains; assay type: cell-based, Candida spp.
# Experimental: as §1, §2
Substance,Haemolytic activity HC10 (human erythrocytes),Haemolytic activity HC50 (human erythrocytes),"% killing (C. albicans SC5314; SC5314, 4 h)","mean log decrease in viable cells (C. albicans SC5314; SC5314, 4 h)",Minimum Inhibitory Concentration (MIC) (Candida krusei ATCC 6258),Minimum Inhibitory Concentration (MIC) (Candida albicans SC 5314),Minimum Inhibitory Concentration (MIC) [1],Minimum Inhibitory Concentration (MIC) [2],IC50 (Het-1A cell line; 24 h),IC50 (Het-1A cell line; 48 h),IC50 (Het-1A cell line; 72 h),IC50 (VK2/E6E7 cell line; 24 h),IC50 (VK2/E6E7 cell line; 48 h),IC50 (VK2/E6E7 cell line; 72 h),"MIC values, range (Candida strains; 48 h)","Haemolytic activity HC10 (human erythrocytes; red cells of human, 1 h)","Haemolytic activity HC50 (human erythrocytes; red cells of human, 1 h)","% killing (C. albicans SC5314; SC5314, 6 h)","mean log decrease in viable cells (C. albicans SC5314; SC5314, 6 h)","MIC values, range (Candida strains; range against C. albicans and C. krusei)"
"GVIDAAKKVVNVLKNLF-NH2 [Uperin 3.6, reference compound]",> 256 mg/L,> 256 mg/L,> 99.99%,5.54 ± 0.13 log CFU/mL,64 µg/mL,64 µg/mL,128 µg/mL,128 µg/mL,17.60 ± 2.52 µg/mL,17.94 ± 1.96 µg/mL,23.23 ± 2.98 µg/mL,17.14 ± 4.32 µg/mL,23.59 ± 1.18 µg/mL,24.69 ± 6.02 µg/mL,64 to 128 µg/mL,–,–,–,–,–
GVIKAAKKVVNVLKNLF-NH2 [Upn-lys4],–,–,–,–,64 µg/mL,64 µg/mL,64 µg/mL,128 µg/mL,14.12 ± 4.35 µg/mL,14.71 ± 4.44 µg/mL,23.64 ± 2.82 µg/mL,15.45 ± 2.64 µg/mL,16.55 ± 0.55 µg/mL,19.98 ± 1.84 µg/mL,–,>256 mg/L,>256 mg/L,99.97%,4.12 ± 1.36 log CFU/mL,–
GIWKKWIKKWLNVLKNLF-NH2 [KU2],–,–,–,–,16 µg/mL,8 µg/mL,8 µg/mL,16 µg/mL,5.51 ± 0.44 µg/mL,6.03 ± 0.43 µg/mL,8.89 ± 1.40 µg/mL,5.42 ± 0.49 µg/mL,7.01 ± 0.84 µg/mL,11.38 ± 1.75 µg/mL,8 to 16 µg/mL,7.33 ± 0.73 mg/L,57.71 ± 9.80 mg/L,99.73%,2.77 ± 0.54 log CFU/mL,–
GVIKAAKKVVKVLKNLF-NH2 [Upn-lys5],–,–,–,–,32 µg/mL,32 µg/mL,32 µg/mL,64 µg/mL,9.73 ± 1.19 µg/mL,9.83 ± 1.40 µg/mL,15.73 ± 0.39 µg/mL,8.67 ± 2.21 µg/mL,10.28 ± 4.53 µg/mL,9.12 ± 1.20 µg/mL,–,>256 mg/L,>256 mg/L,99.99%,4.95 ± 1.24 log CFU/mL,32 to 64 µg/mL
